From the supplement of paper PMC10307832

How the values were obtained:
Test in all cases: relative viability (nuclei count vs DMSO), 5 days (fraction); higher = more cells survive
[1] = compound: Cc1ccc2nc(NCCN)c3ncc(C)n3c2c1 + NC(=O)Nc1cc(-c2cccc(F)c2)sc1C(=O)N[C@H]1CCCNC1 [AZD7762] (partner 0.2 µM)
In short: (§1)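 Relative viability equals treated-well nuclei counts divided by vehicle-well nuclei counts. Counts came from 4× images of lung cancer cell lines grown in 1536-well plates for 5 days after pin-tool dosing on the day after seeding. Dosing used one drug alone or a fixed anchor-drug dose plus five library-drug doses (not always all listed) in √10 steps, and values are medians of duplicate plates.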

[2] = compound: Cc1ccc2nc(NCCN)c3ncc(C)n3c2c1 + O=C(c1cc(Cc2n[nH]c(=O)c3ccccc23)ccc1F)N1CCN(C(=O)C2CC2)CC1 [Olaparib] (partner 8 µM)
In short: as §1

Salubrinal + Foretinib = compound: O=C(/C=C/c1ccccc1)NC(NC(=S)Nc1cccc2cccnc12)C(Cl)(Cl)Cl [Salubrinal] + COc1cc2c(Oc3ccc(NC(=O)C4(C(=O)Nc5ccc(F)cc5)CC4)cc3F)ccnc2cc1OCCCN1CCOCC1 [Foretinib] (partner 0.25 µM)
In short: as §1

Salubrinal + Crizotinib = compound: O=C(/C=C/c1ccccc1)NC(NC(=S)Nc1cccc2cccnc12)C(Cl)(Cl)Cl [Salubrinal] + C[C@@H](Oc1cc(-c2cnn(C3CCNCC3)c2)cnc1N)c1c(Cl)ccc(F)c1Cl [Crizotinib] (partner 1 µM)
In short: as §1

Cell Line	relative viability ([1]; first compound 0.04 µM)	relative viability ([1]; first compound 0.1265 µM)	relative viability ([1]; first compound 0.4 µM)	relative viability ([1]; first compound 1.265 µM)	relative viability ([1]; first compound 4 µM)	relative viability ([2]; first compound 0.04 µM)	relative viability ([2]; first compound 0.1265 µM)	relative viability ([2]; first compound 0.4 µM)	relative viability ([2]; first compound 1.265 µM)	relative viability ([2]; first compound 4 µM)	relative viability (Salubrinal + Foretinib; first compound 0.08 µM)	relative viability (Salubrinal + Foretinib; first compound 0.8 µM)	relative viability (Salubrinal + Foretinib; first compound 2.53 µM)	relative viability (Salubrinal + Foretinib; first compound 8 µM)	relative viability (Salubrinal + Crizotinib; first compound 0.08 µM)	relative viability (Salubrinal + Crizotinib; first compound 0.253 µM)	relative viability (Salubrinal + Crizotinib; first compound 0.8 µM)	relative viability (Salubrinal + Crizotinib; first compound 2.53 µM)	relative viability (Salubrinal + Crizotinib; first compound 8 µM)	relative viability (Salubrinal + Foretinib; first compound 0.253 µM)
201T	0.639	0.569	0.66	0.598	0.618	0.945	0.839	0.804	0.829	0.823	1.36	1.17	1.04	1.12	0.997	1	1.05	1.01	1.02	
A549						0.409	0.406	0.333	0.317	0.301	1.01	0.932	0.861	0.892	0.864	0.491	0.902	0.702	0.695	0.753
A-427	0.816	0.748	0.748	0.721	0.723	0.723	0.672	0.693	0.711	0.63	0.993	1.18	1.02	1.17	0.896	0.899	1.05	0.85	0.895	1.32
ABC-1	0.765	0.999	0.798	0.741	0.648	0.781	0.785	0.639	0.691	1.04	1.15	0.972	0.993	0.886	1.23	0.919	1.22	1.25	1.02	1.05
BEN	0.719	0.738	0.538	0.68	0.783	1.17	1.18	1.07	1.04	1.24	0.505	1.01	0.627	0.643	1.02	0.734	0.996	0.858	0.852	0.867
CAL-12T	0.657	0.649	0.557	0.576	0.481	0.77	0.738	0.827	0.804	0.625	1.14	1.09	0.978	0.991	0.661	0.484	0.806	0.48	0.446	1.07
COR-L23						0.348	0.351	0.397	0.321	0.328	1.1	1.13	1.01	0.889	0.749	0.775	0.699	0.563	0.492	0.932
COR-L 105						0.656	0.883	0.665	0.533	0.642	0.981	1.22	0.892	1.02	0.962	0.624	0.76	0.772	0.689	1.14
Calu-6						0.574	0.601	0.6	0.578	0.367	0.979	0.907	0.806	0.803	0.949	0.644	0.898	0.821	0.728	0.865
